For this assay, the system named is thromboxane B2 (TxB2) formation. Briefly: TxB2 generation in clotted whole blood of anaesthetized rabbits after intravenous dosing (method of Patrono et al., RIA). The assay is classed as in vivo, New Zealand white rabbits. Particulars: Oryctolagus cuniculus, read-out: Percent Inhibition (%) of TxB2 formation; for inhibition at 1 mg/kg: 1.0 mg/kg i.v.; for inhibition at 0.3 mg/kg: 0.3 mg/kg i.v.; for inhibition at 0.1 mg/kg: 0.1 mg/kg i.v. The method, then:
A number of in vivo tests in animals have also been described for evaluating potential anti-thrombotic drugs. For instance, the method of Patrono et al. is adapted to study the generation of TxB2 in whole blood samples removed from animals prior to and following drug treatment. Briefly, blood samples are taken into glass tubes and allowed to clot at 37° C. Serum is then separated by centrifugation and the samples stored at -40° C. until assayed for TxB2, when appropriate dilutions of ethanol deproteinized samples are thereafter analyzed by RIA. This technique is used in experiments with the test compounds to determine intravenous potency in anesthetized rabbits.
In this study, male New Zealand white rabbits (2.6-5.6 kg.) are anesthetized with sodium pentobarbitone (30 mg./kg., i.v.), followed by urethane (500 mg./kg., i.p.). After cannulation of the trachea, a carotid artery is catheterized for collection of the blood samples. The catheter is kept patent by slow infusion (0.2 ml./minutes) of sterile saline. Control carotid arterial blood samples are then taken at 30 minutes and at 5 minutes prior to administration of the test compound or vehicle (0.9% w./v. NaCl, 0.2 ml./kg.) via a marginal ear vein. Three groups of rabbits are employed in the test. The first group is given the test compound at 0.03 mg./kg., followed one hour later by a second dose at 0.1 mg./kg. Similarly, the second group is administered the test compound at 0.3 mg./kg., followed by a second dose (one hour later) at 1.0 mg./kg. The third group is treated with the vehicle alone, followed one hour later by a further vehicle injection. Carotid arterial blood samples are then taken at various time intervals after all doses. At each time point, a 1.0 ml. blood sample is taken into a glass tube, without anticoagulant, for TxB2 determination. For the latter determination, the blood sample is allowed to clot during a two-hour incubation period at 37° C. (which preliminary experiments had already shown to give a maximum TxB2 production) and the resulting serum obtained by centrifugation. The serum samples are then processed through the TxB2 -RIA after deproteinization with ethanol and dilution with Isogel Tris buffer.

Experimental findings from patent US4451472A, “Inhibition of thromboxane synthetase with 3-(heteroalkyl)-indolyl-acrylic acid derivatives” (Pfizer Inc., priority 1981, dated 1984) are described below.

Like-named read-outs stand apart in the source and are kept apart here.

`Cc1c(Cn2ccnc2)c2ccccc2n1/C=C/C(=O)O` [Ex. 1, E-3-{1-[2-methyl-3-(1-imidazolyl-methyl)]indolyl}-acrylic acid]: the inhibition – broadly, how much of the control response was suppressed – at 1 mg/kg is, setting by setting: (2 min, 2 min) 93%; (0.25 h, 15 min) 96%; (0.75 h, 45 min) 95%; (1.25 h, 75 min) 95%. The inhibition at 0.3 mg/kg was 93% (0.25 h, 15 min) and 93% (0.5 h, 30 min).
Regarding `Cc1c(Cc2cccnc2)c2ccccc2n1/C=C/C(=O)O` [Ex. 2, E-3-{1-[2-methyl-3-(3-pyridylmethyl)]indolyl}-acrylic acid], the inhibition at 0.3 mg/kg is 95% (2 min, 2 min); 98% (0.25 h, 15 min); 93% (0.75 h, 45 min); 90% (1.25 h, 75 min). The inhibition at 1 mg/kg is 97% (2 min, 2 min); 94% (0.25 h, 15 min); 97% (0.75 h, 45 min); 95% (1.25 h, 75 min). The inhibition at 0.1 mg/kg is 81% (0.25 h, 15 min) and 82% (0.5 h, 30 min).
